# Experiments:
# Assay type in all cases: in vivo
# [1] = system: Echinocloa crus-galli (ECHCG); assay: greenhouse post-emergence herbicidal test; details: scale from 0 to 100
# Description: (§1) The culture containers used were plastic flowerpots containing loamy sand with approximately 3.0% of humus as the substrate. The seeds of the test plants were sown separately for each species.
# (§2) For the pre-emergence treatment, the active ingredients, which had been suspended or emulsified in water, were applied directly after sowing by means of finely distributing nozzles. The containers were irrigated gently to promote germination and growth and subsequently covered with transparent plastic hoods until the test plants had rooted. This cover caused uniform germination of the test plants, unless this had been impaired by the active ingredients. For the post-emergence treatment, the test plants were first grown to a height of 3 to 15 cm, depending on the plant habit, and only then treated with the active ingredients which had been suspended or emulsified in water. For this purpose, the test plants were either shown directly and grown in the same containers, or they were first grown separately as seedlings and transplanted into the test containers a few days prior to treatment.
# (§3) Depending on the species, the test plants were kept at 10-25° C. or 20-35° C., respectively. The test period extended over 2 to 4 weeks. During this time, the test plants were tended, and their response to the individual treatments was evaluated.
# (§4) Evaluation was carried out using a scale from 0 to 100. 100 means no emergence of the test plants, or complete destruction of at least the aerial moieties, and 0 means no damage, or normal course of growth. A good herbicidal activity is given at values of 70 to <90 and a very good herbicidal activity is given at values of 90 to 100.
# (§5) The test plants used in the greenhouse experiments were of the following species: […]
# [2] = system: Fallopia convolvulus (POLCO); assay: greenhouse post-emergence herbicidal test; details: 0.32 kg/ha, scale from 0 to 100
# Description: as §1, §2, §3, §4, §5
# [3] = system: Setaria viridis (SETVI); assay: greenhouse post-emergence herbicidal test; details: scale from 0 to 100
# Description: as §1, §2, §3, §4, §5
# [4] = system: Alopercurus myosuroides (ALOMY); assay: greenhouse pre-emergence herbicidal test; details: scale from 0 to 100
# Description: as §1, §2, §3, §4, §5
# [5] = system: Lolium multiflorum (LOLMU); assay: greenhouse pre-emergence herbicidal test; details: scale from 0 to 100
# Description: as §1, §2, §3, §4, §5
# [6] = system: Setaria viridis (SETVI); assay: greenhouse pre-emergence herbicidal test; details: 0.250 kg/ha, scale from 0 to 100
# Description: as §1, §2, §3, §4, §5
# [7] = system: Abutilon theophrasti (ABUTH); assay: greenhouse post-emergence herbicidal test; details: 1.000 kg/ha, scale from 0 to 100
# Description: as §1, §2, §3, §4, §5
# [8] = system: Apera spica-venti (APESV); assay: greenhouse pre-emergence herbicidal test; details: scale from 0 to 100, read-out: herbicidal activity against APESV; for pest or weed control at 250 g/ha: 0.250 kg/ha; for pest or weed control at 500 g/ha: 0.500 kg/ha
# Description: as §1, §2, §3, §4, §5
# [9] = system: Avena fatua (AVEFA); assay: greenhouse post-emergence herbicidal test; details: for pest or weed control at 250 g/ha: 0.250 kg/ha; for pest or weed control at 500 g/ha: 0.500 kg/ha
# Description: as §1, §2, §3, §4, §5
# [10] = system: Abutilon theophrasti (ABUTH); assay: greenhouse pre-emergence herbicidal test; details: 0.500 kg/ha, scale from 0 to 100
# Description: as §1, §2, §3, §4, §5
# [11] = system: Echinocloa crus-galli (ECHCG); assay: greenhouse pre-emergence herbicidal test; details: 0.500 kg/ha, scale from 0 to 100
# Description: as §1, §2, §3, §4, §5
# [12] = system: Setaria faberi (SETFA); assay: greenhouse pre-emergence herbicidal test; details: scale from 0 to 100
# Description: as §1, §2, §3, §4, §5
# [13] = system: Alopercurus myosuroides (ALOMY); assay: greenhouse post-emergence herbicidal test; details: 0.125 kg/ha, scale from 0 to 100
# Description: as §1, §2, §3, §4, §5
# [14] = system: Lolium multiflorum (LOLMU); assay: greenhouse post-emergence herbicidal test; details: 0.125 kg/ha, scale from 0 to 100
# Description: as §1, §2, §3, §4, §5
# [15] = system: Amaranthus retroflexus (AMARE); assay: greenhouse post-emergence herbicidal test; details: 0.125 kg/ha, scale from 0 to 100
# Description: as §1, §2, §3, §4, §5
# [16] = Avena fatua, scale from 0 to 100, read-out: herbicidal activity against AVEFA
smiles,measurement,setting,value
CC(C)OC(=O)C1C=CC(NC(=O)C2(C(=O)Nc3cc(F)cc(F)c3)CCO2)C1 (mixture of isomers) [I.4],herbicidal activity against ECHCG,[1]; 0.32 kg/ha,very good (a very good herbicidal activity is given at values of 90 to 100)
same,herbicidal activity against POLCO,[2],very good (a very good herbicidal activity is given at values of 90 to 100)
same,herbicidal activity against SETVI,[3]; 0.32 kg/ha,very good (a very good herbicidal activity is given at values of 90 to 100)
COC(=O)CC(C)NC(=O)C1(C(=O)Nc2cc(Cl)cc(Cl)c2)C=CCO1 (mixture of isomers) [I.25],herbicidal activity against ALOMY,[4]; 0.0625 kg/ha,good (A good herbicidal activity is given at values of 70 to <90)
same,herbicidal activity against LOLMU,[5]; 0.0625 kg/ha,very good (a very good herbicidal activity is given at values of 90 to 100)
O=C([O-])C1C=CC(NC(=O)C2(C(=O)Nc3cc(Cl)cc(Cl)c3)C=CCO2)C1.[Na+] (mixture of isomers) [I.201],herbicidal activity against SETVI,[6],good (A good herbicidal activity is given at values of 70 to <90)
COC(=O)C1C=CC(NC(=O)C2(C(=O)Nc3cc(Cl)cc(Cl)c3)OC2(C)C)C1 (mixture of isomers) [I.220],herbicidal activity against ECHCG,[1]; 0.500 kg/ha,good (A good herbicidal activity is given at values of 70 to <90)
Cn1nnnc1NC(=O)C1(C(=O)Nc2cc(F)c(F)c(F)c2)CCO1 (racemic) [I.5],herbicidal activity against LOLMU,[5]; 0.250 kg/ha,very good (a very good herbicidal activity is given at values of 90 to 100)
COC(=O)CC(C)NC(=O)C1(C(=O)Nc2cc(Cl)cc(Cl)c2)OCCO1 (racemic) [I.19],herbicidal activity against ABUTH,[7],good (A good herbicidal activity is given at values of 70 to <90)
"COC(=O)[C@@H]1C=C[C@H](NC(=O)C2(C(=O)Nc3cc(F)cc(F)c3)CCO2)C1 (stereo partly drawn) [Compound I1, methyl (1S,4R)-4-[[2-[(3,5-difluorophenyl)carbamoyl]oxetane-2-carbonyl]amino]cyclopent-2-ene-1-carboxylate]",pest or weed control at 250 g/ha,[8],90 to 100%
same,pest or weed control at 250 g/ha,[9]; [16],90 to 100%
"COC(=O)C[C@H](C)NC(=O)C1(C(=O)Nc2cc(F)cc(F)c2)CCO1 (stereo partly drawn) [Compound I2, methyl (3S)-3-[[2-[(3,5-difluorophenyl)carbamoyl]oxetane-2-carbonyl]amino]butanoate]",pest or weed control at 500 g/ha,[8],90 to 100%
"COC(=O)[C@@H]1C=C[C@H](NC(=O)C2(C(=O)Nc3cc(Cl)cc(Cl)c3)CCO2)C1 (stereo partly drawn) [Compound I6, methyl (1S,4R)-4-[[2-[(3,5-dichlorophenyl)carbamoyl]oxetane-2-carbonyl]amino]cyclopent-2-ene-1-carboxylate]",herbicidal activity against ABUTH,[10],very good (a very good herbicidal activity is given at values of 90 to 100)
same,pest or weed control at 500 g/ha,[8],90 to 100%
"COC(=O)C[C@H](C)NC(=O)C1(C(=O)Nc2cc(Cl)cc(Cl)c2)CCO1 (stereo partly drawn) [Compound I7, methyl (3S)-3-[[2-[(3,5-dichlorophenyl)carbamoyl]oxetane-2-carbonyl]amino]butanoate]",pest or weed control at 500 g/ha,[8],90 to 100%
same,pest or weed control at 500 g/ha,[9]; [16],90 to 100%
COC(=O)[C@@H]1CC[C@H](NC(=O)C2(C(=O)Nc3cc(Cl)cc(Cl)c3)CCCO2)C1 (stereo partly drawn) [Compound I15],herbicidal activity against ECHCG,[11],good (A good herbicidal activity is given at values of 70 to <90)
same,herbicidal activity against SETFA,[12]; 0.500 kg/ha,good (A good herbicidal activity is given at values of 70 to <90)
"COC(=O)[C@@H]1C=C[C@H](NC(=O)C2(C(=O)Nc3cc(Cl)cc(Cl)c3)CCCO2)C1 (stereo partly drawn) [Compound I16, methyl (1S,4R)-4-[[2-[(3,5-dichlorophenyl)carbamoyl]tetrahydrofuran-2-carbonyl]amino]cyclopent-2-ene-1-carboxylate]",pest or weed control at 500 g/ha,[8],90 to 100%
"COC(=O)CCCNC(=O)C1(C(=O)Nc2cc(Cl)cc(Cl)c2)CCCO1 (stereo not drawn) [Compound I18, methyl 4-[[2-[(3,5-dichlorophenyl)carbamoyl]tetrahydrofuran-2-carbonyl]amino]butanoate]",pest or weed control at 500 g/ha,[8],90 to 100%
same,pest or weed control at 500 g/ha,[9]; [16],70 to 90%
"COC(=O)[C@@H]1C=C[C@H](NC(=O)C2(C(=O)Nc3cc(Cl)cc(Cl)c3)C=CCO2)C1 (stereo partly drawn) [Compound I24, methyl (1S,4R)-4-[[5-[(3,5-dichlorophenyl)carbamoyl]-2H-furan-5-carbonyl]amino]cyclopent-2-ene-1-carboxylate]",herbicidal activity against ALOMY,[4]; 0.250 kg/ha,very good (a very good herbicidal activity is given at values of 90 to 100)
same,pest or weed control at 250 g/ha,[9]; [16],90 to 100%
"COC(=O)[C@@H]1C=C[C@H](NC(=O)C2(C(=O)Nc3cc(Cl)cc(Cl)c3)C=CCO2)C1 (stereo partly drawn) [Compound I183, methyl (1S,4R)-4-[[5-[(3,5-dichlorophenyl)carbamoyl]-2H-furan-5-carbonyl]amino]cyclopent-2-ene-1-carboxylate]",pest or weed control at 125 g/ha,[8]; 0.125 kg/ha,70 to 90%
"COC(=O)[C@@H]1C=C[C@H](NC(=O)C2(C(=O)Nc3cc(Cl)cc(Cl)c3)C=CCO2)C1 (stereo partly drawn) [Compound I184, methyl (1S,4R)-4-[[5-[(3,5-dichlorophenyl)carbamoyl]-2H-furan-5-carbonyl]amino]cyclopent-2-ene-1-carboxylate]",pest or weed control at 250 g/ha,[8],90 to 100%
"COC(=O)C[C@H](C)NC(=O)C1(C(=O)Nc2cc(Cl)cc(Cl)c2)CCCO1 (stereo partly drawn) [I.17, methyl (3S)-3-[[2-[(3,5-dichlorophenyl)carbamoyl]tetrahydrofuran-2-carbonyl]amino]butanoate]",pest or weed control at 500 g/ha,[8],90 to 100%
same,pest or weed control at 500 g/ha,[9]; [16],70 to 90%
"COC(=O)[C@@H]1C=C[C@H](NC(=O)C2(C(=O)Nc3cc(Cl)cc(Cl)c3)OCCS2)C1 (stereo partly drawn) [I.20, methyl (1S,4R)-4-[[2-[(3,5-dichlorophenyl)carbamoyl]-1,3-oxathiolane-2-carbonyl]amino]cyclopent-2-ene-1-carboxylate]",pest or weed control at 250 g/ha,[8],70 to 90%
same,pest or weed control at 250 g/ha,[9]; [16],90 to 100%
"COC(=O)CC[C@H](C)NC(=O)C1(C(=O)Nc2cc(Cl)cc(Cl)c2)OCCS1 (stereo partly drawn) [I.21, methyl (4S)-4-[[2-[(3,5-dichlorophenyl)carbamoyl]-1,3-oxathiolane-2-carbonyl]amino]pentanoate]",pest or weed control at 250 g/ha,[8],90 to 100%
same,pest or weed control at 250 g/ha,[9]; [16],90 to 100%
COC(=O)C[C@H](C)NC(=O)C1(C(=O)Nc2cc(Cl)cc(Cl)c2)COCO1 (stereo partly drawn) [I.22],herbicidal activity against ALOMY,[13],very good (a very good herbicidal activity is given at values of 90 to 100)
same,pest or weed control at 125 g/ha,"[9]; Avena fatua, 0.125 kg/ha, scale from 0 to 100, read-out: herbicidal activity against AVEFA",90 to 100%
same,herbicidal activity against LOLMU,[14],very good (a very good herbicidal activity is given at values of 90 to 100)
"COC(=O)CCCNC(=O)C1(C(=O)Nc2cc(Cl)cc(Cl)c2)COCO1 (stereo not drawn) [I.23, methyl 4-[[4-[(3,5-dichlorophenyl)carbamoyl]-1,3-dioxolane-4-carbonyl]amino]butanoate]",pest or weed control at 500 g/ha,[9]; [16],70 to 90%
C=C1CCOC1(C(=O)Nc1cc(Cl)cc(Cl)c1)C(=O)NC(C)CC(=O)OC (stereo not drawn) [I.122],herbicidal activity against AMARE,[15],good (A good herbicidal activity is given at values of 70 to <90)
O=C(O)CCCNC(=O)C1(C(=O)Nc2cc(F)cc(F)c2)CCO1 (stereo not drawn) [I.126],herbicidal activity against SETVI,[3]; 0.0625 kg/ha,good (A good herbicidal activity is given at values of 70 to <90)
CS(=O)(=O)CCOC(=O)CCCNC(=O)C1(C(=O)Nc2cc(F)cc(F)c2)CCO1 (stereo not drawn) [I.130],herbicidal activity against AVEFA,"[9]; 0.0625 kg/ha, scale from 0 to 100",good (A good herbicidal activity is given at values of 70 to <90)
CC(C)OC(=O)C1C=CC(NC(=O)C2(C(=O)Nc3cc(F)c(F)c(F)c3)CCO2)C1 (stereo not drawn) [I.133],herbicidal activity against ALOMY,[4]; 0.13128 kg/ha,very good (a very good herbicidal activity is given at values of 90 to 100)
same,herbicidal activity against LOLMU,[5]; 0.13128 kg/ha,very good (a very good herbicidal activity is given at values of 90 to 100)
same,herbicidal activity against SETFA,[12]; 0.13128 kg/ha,very good (a very good herbicidal activity is given at values of 90 to 100)
CC(C)OC(=O)C1C=CC(NC(=O)C2(C(=O)Nc3cccc(OC(F)(F)F)c3)CCO2)C1 (stereo not drawn) [I.134],herbicidal activity against ECHCG,[1]; 0.0625 kg/ha,very good (a very good herbicidal activity is given at values of 90 to 100)
